One test concerns ET receptor. To be noted: relative to ET-1; cited from earlier work.
Test [1] concerns the target endothelin receptor, rat heart ventricle. Description: [125I]-ET-1 binding assay in rat heart ventricle. To be noted: [125I]-ET-1, rat heart ventricle (10 µg), 37°C, 2 hours. As to the method: (§1) The compounds of Formula I are valuable antagonists of endothelin. […] Thus, the compounds of Formula I were tested for their ability to inhibit [^125I]-ET-1([^125I]-Endothelin-1) binding in a receptor assay. The binding of the compounds of Formula I is determined by incubation (37°C, 2 hours) of a compound of Formula I with [^125I]-ET-1 and the tissue (rat heart ventricle (10 µg)) in 50 mM Tris(hydroxymethyl)aminomethane hydrochloride (Tris-HCl) (pH 7.4), 5 mM ethylenediamine tetraacetic acid (EDTA), 2 mM ethylene glycol bis(β-aminoethyl ether)N,N,N',N'-tetraacetic acid (EGTA), 100 µM phenylmethylsulfonyl fluoride (PMSF), and 100 µM bacitracin containing protease inhibitors (total volume of 0.5 mL). IC50 values are calculated by weighing nonlinear regression curve-fitting to the mass-action (Langmuir) equation. The functional activity of compounds of Formula I is determined in Rat-1 cells by measuring intracellular levels of second messengers. Thus, cells were prelabeled with [^3H]-inositol and endothelin-stimulated accumulation of total [^3H]-inositol phosphates in the presence of Li^+ is monitored using anion exchange chromatography as described by Muldoon, L. L., et al, Journal of Biological Chemistry, Volume 264, pages 8529-8536 (1989) and Dudley, D. T., et al, Molecular Pharmacology, Volume 38, pages 370-377 (1990). Antagonist activity is assessed as the ability of added compounds to reduce endothelin-stimulated inositol phosphate accumulation. Antagonist activity was also measured by the ability of added compounds to reduce endothelin-stimulated arachidonic acid release in cultured vascular smooth muscle cells as (AAR) described in Reynolds, E., Mok, K., Faseb J., 1991, 5, A1066. The data in the table show the endothelin antagonist activity of representative compounds of Formula I. TABLE 1

Another test has as its target T1, Rat-1 cells (Rattus norvegicus, UniProt P26684).
T1 sequence (P26684 21-426): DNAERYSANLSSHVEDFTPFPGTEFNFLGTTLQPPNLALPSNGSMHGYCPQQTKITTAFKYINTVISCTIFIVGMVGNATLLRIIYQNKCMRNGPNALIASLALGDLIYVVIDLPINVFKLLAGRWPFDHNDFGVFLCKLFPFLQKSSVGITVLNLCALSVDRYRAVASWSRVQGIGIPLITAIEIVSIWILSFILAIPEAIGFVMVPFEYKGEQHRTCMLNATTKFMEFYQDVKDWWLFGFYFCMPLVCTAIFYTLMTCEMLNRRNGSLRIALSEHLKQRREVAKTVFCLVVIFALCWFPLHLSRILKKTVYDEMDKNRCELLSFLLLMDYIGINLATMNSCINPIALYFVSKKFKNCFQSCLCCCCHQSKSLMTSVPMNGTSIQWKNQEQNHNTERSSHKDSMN
Description: Endothelin-stimulated inositol phosphate (IP) accumulation in Rat-1 cells. The class given is cell-based. As to the method: as §1, with “Antagonist activity is assessed as the ability of added compounds to reduce endothelin-stimulated inositol phosphate accumulation. Antagonist activity was also measured by the ability of added compounds to reduce endothelin-stimulated arachidonic acid release in cultured vascular smooth muscle cells as (AAR) described in Reynolds, E., Mok, K., Faseb J., 1991, 5, A1066. The data in the table show the endothelin antagonist activity of representative compounds of Formula I. TABLE 1” left out

Data on 6 molecules can be found in EP0584290B1, “ENDOTHELIN ANTAGONISTS” (WARNER-LAMBERT COMPANY, priority 1991, dated 1992).

For orientation: IC50 means the concentration needed to halve the response being measured. Low values mean greater potency, high ones weaker potency. Broadly, the inhibition is the change of the read-out against control, counted positive when it falls. A high value points to a strong effect.

Square brackets hold non-standard residues; d marks the D form. Ends that are not written are not given here. Peptide text beside a SMILES is read from it. d1Nal = N[C@H](Cc1cccc2ccccc12)C(=O)O

Turning to “ET[1-20]: ET-1 analogue without the C-terminal amino acid (Trp-21) (CSCSSLMDKECVYFCHLDII; not fully specified (bridges); ends and bridges not checked; UniProt P05305 53-72, looked up, fragment)”, the less functional activity result in the test on ET receptor is “approximately 1000 fold”.
`CC[C@H](C)[C@H](NC(=O)[C@H](CC(=O)O)NC(=O)[C@H](CC(C)C)NC(=O)[C@@H](Cc1ccccc1)NC(C)=O)C(=O)N[C@@H](Cc1c[nH]c2ccccc12)C(=O)O` [Example 6, Ac-D-Phe-Leu-Asp-Ile-Trp] (Ac-[dF]LDIW-OH) returned an IC50 in test [1] of 24.5 µM.
For `CC[C@@H](C)[C@@H](NC(=O)[C@@H](NC(=O)[C@@H](CC(=O)O)NC(=O)[C@H](CC(C)C)NC(=O)[C@@H](Cc1c[nH]cn1)NC(C)=O)[C@@H](C)CC)C(=O)N[C@@H](Cc1c[nH]c2ccccc12)C(=O)O` [Example 7, Ac-D-His-Leu-D-Asp-Ile-D-Ile-Trp] (Ac-[dH]L[dD]I[dI]W-OH), the IC50 in test [1] worked out at 6.03 µM.
Still for that read-out and setting: then `CC[C@H](C)[C@H](NC(=O)[C@H](CC(=O)O)NC(=O)[C@@H](Cc1ccccc1)NC(C)=O)C(=O)N[C@H](C(=O)N[C@@H](Cc1c[nH]c2ccccc12)C(=O)O)[C@@H](C)CC` [Example 11, Ac-D-Phe-Asp-Ile-Ile-Trp] (Ac-[dF]DIIW-OH), with 2.15 µM.
The molecule `CC[C@H](C)[C@H](NC(=O)[C@H](CC(=O)O)NC(=O)[C@H](CC(C)C)NC(=O)[C@@H](Cc1ccccc1)NC(C)=O)C(=O)N[C@H](C(=O)N[C@@H](Cc1c[nH]c2ccccc12)C(=O)O)[C@@H](C)CC` [Example 1, Ac-D-Phe-Leu-Asp-Ile-Ile-Trp] (Ac-[dF]LDIIW-OH) yielded an IC50 in test [1] of 0.72 µM.
On Rat-1 cells, `CC[C@H](C)[C@H](NC(=O)[C@H](CC(=O)O)NC(=O)[C@H](CC(C)C)NC(=O)[C@H](N)Cc1cccc2ccccc12)C(=O)N[C@H](C(=O)N[C@@H](Cc1c[nH]c2ccccc12)C(=O)O)[C@@H](C)CC` [Example 4, D-1-Nal-Leu-Asp-Ile-Ile-Trp] (H-[d1Nal]LDIIW-OH) gave an inhibition at 50 µM of 53%.
